According to patent US4132731A, “Novel iodized isophthalamic acid compounds” (Schering Aktiengesellschaft, priority 1976, dated 1979):

What was measured:
[1] = general compatibility (LD50 i.v.) in rats; details: rat, in vivo, iv
rats = experiment: neural compatibility: intracerebral compatibility / Valzelli value (ED50) in rats; details: aqueous meglumine salt solutions, confidence range p 0.05
[2] = rats, aqueous meglumine salt solutions

SMILES	LD50 [1, 2] [mg/kg]	Valzelli Value (ED50) and Confidence Range (rats)	LD50 [1] [mg/kg]
COCC(=O)Nc1c(I)c(C(=O)O)c(I)c(C(=O)NC(C)(C)CCO)c1I [Compound 6, N-(3-hydroxy-1,1-dimethylpropyl)-2,4,6-triiodo-5-methoxyacetamidoisophthalamic acid]	18400	67.2 (58.7-84.8) mg. I/kg.	
CC(=O)Nc1c(I)c(C(=O)O)c(I)c(C(=O)NCCO)c1I [Compound 1, ioxithalamic acid, reference compound]		12.3 (10.3-14.4) mg. I/kg.	15200
COCC(=O)Nc1c(I)c(C(=O)O)c(I)c(C(=O)NCCCO)c1I [Compound 4, N-(3-Hydroxypropyl)-2,4,6-triiodo-5-methoxyacetamidoisophthalamic Acid]	16300	43.1 (32.6-50.9) mg. I/kg.	
COCC(=O)Nc1c(I)c(C(=O)O)c(I)c(C(=O)NCCO)c1I [Compound 5, N-(2-Hydroxyethyl)-2,4,6-triiodo-5-methoxyacetamidoisophthalamic Acid]	> 18600	44.9 (36.7-51,8) mg. I/kg.	
COCC(=O)Nc1c(I)c(C(=O)O)c(I)c(C(=O)NCC(C)O)c1I (centres unmarked) [Compound 3, N-(2-Hydroxypropyl)-2,4,6-triiodo-5-methoxyacetamidoisophthalamic Acid]	19000	44.6 (35.5-52.2) mg. I/kg.	
CC(=O)Nc1c(I)c(C(=O)O)c(I)c(C(=O)NCC(C)O)c1I (centres unmarked) [Compound 7]		50.7 (44.3-56.6) mg. I/kg.	18200
COCC(=O)Nc1c(I)c(C(=O)O)c(I)c(C(=O)NC(C)(C)CO)c1I [Compound 2, N-(2-hydroxy-1,1-dimethylethyl)-2,4,6-triiodo-5-methoxyacetamidoisophthalamic acid]	20000	71.4 (61.4-99.9) mg. I/kg.	
